Results published in US20190127707A1, “MEDIUM FOR CULTURING NAIVE PLURIPOTENT STEM CELLS AND METHOD FOR CULTURING PLURIPOTENT STEM CELLS” (KYOWA HAKKO BIO CO., LTD., priority 2016, published 2019).

How the values were obtained:
[1] = tested on: Tic-FX cells; assay: Culturing of iPS cells in the presence of low molecular weight compounds (cell count); format: cell-based, human; conditions: 40 ng/mL FGF2, five days
Method: Media were produced by adding 1 μM of Y-27632, 20 ng/mL of LIF and 40 ng/mL of FGF2 to the basal medium, and media were produced by adding the following inhibitors to the media at concentrations of 1 μM (PD0325901), 0.3 μM (CHIR99021), 0.5 μM (SB590885), 1 μM (WH-4-023), 10 μM (SP600125), 10 μM (SB203580), 5 μM (Go6983), 5 μM (GF109203X), 2 μM (Porsomorphin) or 400 ng/mL (Noggin) each. The Tic-FX cells were proliferated in suspension culture in ultra-low attachment 6-well plates (manufactured by Coming Incorporated) containing the media in the presence of 10% CO2 at 37° C. The cells were cultured for five days, and the cells were counted. In FIG. 6, “−” indicates the results using the medium to which no inhibitor was added.

[2] = tested on: Tic-FX cells; assay: Real-time PCR of pluripotency markers in cells proliferated with inhibitors; format: cell-based, human; conditions: 40 ng/mL FGF2, versus control Tic-FX
Excerpt: Cells cultured in the basal medium were used as the control (indicated by Tic-FX in FIG. 7A and FIG. 7B).

[3] = tested on: Tic-FX cells; assay: Influence on proliferation of iPS cells in the presence of ROCK inhibitor (suspension culture); format: cell-based, human; conditions: Y-27632 at 1 μM, 3 μM or 10 μM in hESF-FX medium
Method: In the following Examples, a medium obtained by mixing the following components in the amounts shown in Table 1 which had been sterilized with a […] into mESF Basal Medium (manufactured by Wako Pure Chemical Industries, Ltd., 136-17805) was used as hESF-FX medium. As the iPS cells, Tic-FX cells [a cell line obtained by conditioning iPS cells, line Tic (JCRB1331) to a feeder-free xeno-free culture (FX)] were used. A ROCK inhibitor (Y-27632) was dissolved in the hESF-FX medium at 1 μM, 3 μM or 10μM. The media each in an amount of 3 mL were put into an ultra-low attachment 6-well plate (manufactured by Corning Incorporated), and the Tic-FX cells were cultured in the presence of 10% CO2 at 37° C. (suspension culture). The plate was observed after one day, three days and five days of cultivation. […] The numbers of the cells per well and the viability of the cells were measured after five days of cultivation.

[4] = tested on: Tic-FX cells; assay: Real-time PCR of undifferentiation, naive type-specific and differentiation marker genes in cells of Example 1; format: cell-based, human; conditions: five days, relative to GAPDH; for expression level of NCAM / expression level of naive type-specific STELLA gene: versus control; for expression level of NANOG / expression level of OCT3/4: versus control Tic-FX
Method: The expression of marker genes was examined by real-time PCR. Real-time PCR was conducted using a real-time PCR system (7300 manufactured by Applied Biosystems) by the following reaction procedures using the following primers. 95° C. 30 seconds→[(95° C. 5 seconds→60° C. 31 seconds)×40 cycles]→Melting Cycle Using the cells cultured in Example 1, the expression levels of NANOG and OCT3/4, which are undifferentiation marker genes, […], which is a naive type-specific marker gene, and NCAM, which is a neuronal differentiation-specific marker gene, in the cells after five days of cultivation were examined by the real-time PCR. In FIG. 3A to FIG. 3D, the vertical axes each indicate the ratio of the expression level of the target gene of the sample to that of GAPDH (glyceraldehyde-3-phosphate dehydrogenase), which was used as the internal standard. Specifically, the values in the graphs each mean the relative value (unit is fold) of the DNA amount before the amplification determined from the difference between the Cp value of GAPDH and the Cp value of the target gene. Here, the internal standard is a gene whose expression level is always constant independently of the state of the cells. The Cp value is the number of cycles which are necessary to amplify DNA to the amount that can be detected with a measurement device when the DNA is amplified by PCR reaction (theoretically, the DNA amount doubles in one cycle).

[5] = tested on: human iPS cells; conditions: added to the medium; cells dispersed into single cells or clusters of several to several dozen cells; cited from earlier work
[6] = 0.3 μM added to medium with 1 μM Y-27632, 20 ng/mL LIF
[7] = 400 ng/mL added to medium with 1 μM Y-27632, 20 ng/mL LIF

Molecule: Cc1c[nH]c(-c2cnc(NCCNc3ccc(C#N)cn3)nc2-c2ccc(Cl)cc2Cl)n1 [CHIR99021, 6-{2-[4-(2,4-dichloro-phenyl)-5-(4-methyl-1H-imidazol-2-yl)-pyrimidin-2-ylamino]-ethylamino}-nicotinonitrile]
- growth rate of the cells [1, 6]: high
- expression level of NANOG [2, 6]: increased
- expression level of OCT3/4 [2, 6]: increased

Molecule: C[C@@H](N)[C@H]1CC[C@H](C(=O)Nc2ccncc2)CC1.Cl.Cl [Y-27632, (+)-(R)-trans-4-(1-aminoethyl)-N-(4-pyridyl)cyclohexanecarboxamide dihydrochloride]
- number of the cells per well ([3]; after five days of cultivation): increased as the concentration of the ROCK inhibitor was higher
- viability of the cells ([3]; after five days of cultivation): increased as the concentration of the ROCK inhibitor was higher
- number of the cells (micrographs, FIG. 1A and FIG. 1B) ([3]; observed after one, three and five days): increased as the concentration of the ROCK inhibitor was higher
- expression level of NCAM ([4]; 1 μM): almost the same as that of the control
- expression level of naive type-specific STELLA gene ([4]; 1 μM): higher than that of the control
- expression level of NANOG ([4]; 1 μM): higher than those of the control
- expression level of OCT3/4 ([4]; 1 μM): higher than those of the control
- expression level of NCAM ([4]; 3 μM): higher than that of the control
- expression level of naive type-specific STELLA gene ([4]; 3 μM): higher than that of the control
- expression level of NANOG ([4]; 3 μM): higher than those of the control
- expression level of OCT3/4 ([4]; 3 μM): higher than those of the control
- expression level of NCAM ([4]; 10 μM): higher than that of the control
- expression level of naive type-specific STELLA gene ([4]; 10 μM): slightly higher than that of the control
- expression level of NANOG ([4]; 10 μM): lower than those of the control
- expression level of OCT3/4 ([4]; 10 μM): lower than those of the control
- apoptosis of human iPS cells [5]: suppresses the apoptosis
- intercellular adhesion [5]: promotes the intercellular adhesion

B1: Noggin: Noggin, Recombinant Human, manufactured by R&D Systems; endogenous protein that inhibits BMP (protein, UniProt Q13253 28-232, looked up)
Noggin: QHYLHIRPAPSDNLPLVDLIEHPDPIFDPKEKDLNETLLRSLLGGHYDPGFMATSPPEDRPGGGGGAAGGAEDLAELDQLLRQRPSGAMPSEIKGLEFSEGLAQGKKQRLSKKLRRKLQMWLWSQTFCPVLYAWNDLGSRFWPRYVKVGSCFSKRSCSVPEGMVCKPSKSVHLTVLRWRCQRRGGQRCGWIPIQYPIISECKCSC
- growth rate of the cells [1, 7]: high
- expression level of NANOG [2, 7]: increased
- expression level of OCT3/4 [2, 7]: increased
